From patent publication US20080058274A1, “Combination Therapy” (priority 2004, published 2008)
Counter-ions that a name gives are not always drawn. Like-named read-outs stand apart in the source and are kept apart here.

Columns and labels:
[1] = Doxorubicin pharmacokinetics and biodistribution in tumor-bearing mice; assay type: in vivo, BALB/c mice
Experimental: Pharmacokinetics and biodistribution studies in tumor-bearing mice: Eight to 10-week-old BALB/c female mice, obtained through the Animal Breeding House of the Hebrew University (Jerusalem, Israel), were housed at Hadassah Medical Center at a specific pathogen free (SPF) facility with food and water ad libitum. Each mouse was injected with one inoculum of tumor cells (1×10^6 murine C-26 cells) subcutaneously into the left flank. 7 days later SSL formulations containing both DXN (0.16 mg/mouse) and C6Cer, (0.25 mg/mouse), Doxil (0.16 mg/mouse) and free DXN (0.16 mg/mouse) were injected i.v. At 1, 4, 24 and 48 hr after injection, the animals were anesthetized with 4% chloral hydrate (Fluka, USA), bled by eye inoculation, and plasma was separated from blood cells by 5 min centrifugation at 5,000 rpm. Various organs (liver, heart, lungs, kidneys) and tumor were removed. Each time period in each treated group consisted of 3 mice. Samples were frozen at −80° C. until assayed. Thereafter, plasma samples were diluted in 90% isopropanol containing 10% 0.75N HCl in order to dissolve all liposome's lipids and release the DXN to the solution, and concentration of DXN was determined according to a standard calibration curve of DXN (excitation at 485±10 mu and emission at 590±10 nm) from fluorescence intensity using Synergy HT plate reader in its fluorescence mode (Bio-Tek, Vermont, USA).
Doxorubicin pharmacokinetics and biodistribution studies in tumor-bearing mice: BALB/c female mice were injected with one inoculum of tumor cells (1×10^6 C-26 cells) subcutaneously into the left flank. Seven days later, liposomal formulations containing both DXN and C6Cer [HSPC:^2kPEG-DSPE:Chol:C6Cer (76:7.5:5:11.5)-DXN]; Doxil or Free DXN were injected i.v., and bled by eye inoculation, plasma was isolated and 50 μl was taken from plasma for further analysis. DXN levels were determined after “extraction” of plasma with acidic isopropanol as described in Methods.

C-26 colon carcinomas = assay: In vivo antitumor efficacy, mice inoculated i.p. with C-26 colon carcinoma; parameters: species or system BALB/c mice; details: i.v. treatment, DXN 8 mg/kg
Experimental: In vivo evaluation of antitumor efficacy of Liposomal DXN: All the experimental procedures which make use of animals (mice) were done in accordance with the standards required by the Institutional Animal Care and Use Committee of the Hebrew University and Hadassah Medical Organization and approved by the Committee.
To test therapeutic efficacy, female BALB/c mice (in the weight range of 16-20 g) were injected i.p. with 1*10^6 C-26 colon carcinomas. The viability of these cells was >90% by trypan blue exclusion. Therapeutic efficacy of i.v. injected SSL (DXN-C6Cer-SSL) containing both DXN in intraliposome aqueous phase (DXN/PL ratio of 0.2) and 11.5 mole % of C6Cer in comparison to Doxil (alone) and free DXN was studied. In all 3 treatments DXN dose was 0.16 mg/mouse (8 mg/kg) and dose of C6Cer injected into mice treated with DXN-C6Cer-SSL was 0.25 mg.mouse (12.5 mg/kg). Intravenous treatment began at day 4 after tumor cell inoculation and was repeated three times at 5-days intervals. The median survival and percentage increase in life span of treated (T) over control (C) animals (Tx100/C)-100 were calculated.
Statistical analysis: Median survival times and the statistical significance of differences in survival curves were calculated by means of the log-rank test using Prism Software (GraphPad, San Diego, Calif.). Differences were considered significant at P<0.05.

[2] = system: doxorubicin-resistant human breast carcinoma M-109 cell line; assay: Cytotoxicity, methylene blue (MB) staining assay; assay type: cell-based; details: M-109 doxorubicin-resistant cells
Experimental: Cytotoxicity studies: The cytotoxicity of C6Cer-DXN-SSL against doxorubicin-resistant human breast carcinoma M-109 cell line was tested by the methylene blue (MB) staining assay [Gorodetsky, R. et al. Int. J. Cancer. 75:635-642 (1998)]. A known number of exponentially growing cells in 200 μL of medium were plated in 96-microwell, flat-bottomed plates. For each of the variants tested, 4 wells were used. Following 24 hr of incubation in culture, different concentrations of drugs or formulations were added to each well containing untreated cells.
Cells were exposed to drugs for 96 hr. […] The MB bound to the fixed cells was extracted by incubation at 37° C. with 200 μL of 0.1 N HCl for 1 h, and the net optical density of the dye in each well was determined by a plate spectrophotometer (Labsystems Multyskan Bichromatic, Finland) at 620 nm.
Statistical analysis: Median survival times and the statistical significance of differences in survival curves were calculated by means of the log-rank test using Prism Software (GraphPad, San Diego, Calif.). […] For assessment of synergy, the combination index (CI) was determined by median effect analysis [Chow T C, Talalay P. Quantitative analysis of dose-effect relationships: the combined effects of multiple drugs or enzyme inhibitors. […]

COc1cccc2c1C(=O)c1c(O)c3c(c(O)c1C2=O)C[C@@](O)(C(=O)CO)C[C@@H]3O[C@H]1C[C@H](N)[C@H](O)[C@H](C)O1 [free DXN, 8S,10S)-10-[(3-amino-2,3,6-trideoxy-a-L-lyxo-hexopyranosyl)oxy]-8-glycolyl-7,8,9,10-tetrahydro-6,8,11-trihydroxy-1-methoxy-5,12-naphthacenedione hydrochloride]
DXN remaining in plasma ([1]; 1 hr post-injection, i.v. 0.16 mg DXN/mouse, FIG. 4A): 3%
DXN level in heart tissue ([1]; 4 hr post-treatment, i.v., FIG. 4B): 5.7%
DXN level in tumor tissue ([1]; 24 hr post-injection (maximum), i.v., s.c. C-26 tumor, FIG. 4B): 1%
DXN remaining in circulation ([1]; plasma, 48 hr post-injection, i.v. 0.16 mg DXN/mouse, FIG. 4A): below detection
survival 80 days after treatment initialization (C-26 colon carcinomas; FIG. 3): 0%
median survival (C-26 colon carcinomas; untreated 16 day): 35 days
IC50 ([2]; M109, agent given alone, 96 hr exposure, read-out: IC50): 2.2 µM
IC50 ([2]; M109, combined with liposomal C6Cer at its IC10, 96 hr, read-out: IC50 of DXN in the presence of IC10 concentration of liposomal C6Cer): 0.9 µM
